Like-named read-outs stand apart in the source and are kept apart here.
Tests used:
Type in all cases: in vivo
[1] = test system: corn; assay: Example 19, Procedure II: Herbicide No. 1 + ERADICANE EXTRA with added antidotes
Protocol: (§1) Containers were filled and compacted with a fumigated silt loam top soil to a depth of about 1.3 cm from the top of the container. A first container was designated as an untreated control, a second container was designated as a herbicide control, and a third container was designated as a herbicide + antidote test container. Each of the containers was seeded with a crop species. A measured amount of herbicide dispersed or dissolved in acetone was applied to a measured quantity of soil. To this same quantity of soil treated with herbicide, there was added a measured amount of antidote dispersed or dissolved in acetone. The quantity of soil treated with the herbicide and antidote was thoroughly mixed to incorporate the herbicide and antidote in the soil uniformly. The seed bed in the third container of soil was covered with the soil treated with the herbicide and antidote and the container was leveled. For each test series, the seed beds of the first and second containers were likewise covered by soil layers. the cover layer of the first container was not treated with herbicide or antidote.
(§2) The containers were then placed on a bench in a greenhouse and sub-irrigated as required for the duration of the test. […] Plant response is measured in terms of percent injury. Antidote efficacy is indicated as the difference in plant injury by the herbicide(s) without the antidote and with the antidote.
(§3) This procedure is the same as Procedure I, but modified in the manner that after incorporation of the chemicals (herbicide and antidote) the containers with the covered seedbed were treated with an initial overhead irrigation equivalent to 0.6 cm rainfall, then subsequently sub-irrigated as required on greenhouse benches.
In the test reported in this example, the herbicidal composition was similar to that used in Example 16 in that Herbicide No. 1 was combined with EPTC (Herbicide No. 4) as a co-herbicide and the antidotes included Nos. 1, 2, 7, 13 and 15. However, in this test the EPTC was introduced as a formulation of ERADICANE (EPTC + the antidote R-25788, i.e., Antidote No. 1) at an application rate of 8.96 kg/ha. Thus, in this test two antidotes were present, viz. R-25788 and one of the auxilliary antidotes, No. 2, 13 and 15.
The test reported in this example was performed in the same manner and with the same antidotes used in Example 18, the only difference being the substitution of the commercial herbicidal product ERADICANE® EXTRA for ERADICANE®. ERADICANE EXTRA is a formulation containing both an antidote, i.e., R-29148 (Antidote No. 5 herein), and an extender, dietholate.

[2] = test system: velvetleaf (Abutilon theophrasti); assay: Example 8, Procedure II: Herbicide No. 1 + butachlor (No. 9) with antidotes
Protocol: as §1, §2, §3
(§4) In the series of greenhouse tests described below, for routine screening purposes the herbicide/antidote compositions were tested in crop/weed combinations involving corn as the crop and either or both of the weeds barnyardgrass (Echinochloa crusgalli), a monocotyledonous weed, and velvetleaf (Abutilon theophrasti), a dicotyledonous weed. In the tables below, these weeds are indicated by the symbols "BYG" and "VL", respectively.
(§5) In this test, the efficacy of the same five antidotes used in Examples 6 and 7 was investigated in compositions comprising Herbicide No. 1 and as a co-herbicide, butachlor (Herbicide No. 9), active ingredient in MACHETE® herbicide, a leading commercial rice herbicide. The test procedure used in this example was the same as that in Examples 6 and 7.

[3] = test system: barnyardgrass (Echinochloa crusgalli); assay: as above
Protocol: as §1, §2, §3, §4, §5

[4] = test system: corn; assay: Example 21, Procedure II: Herbicide No. 1 + SUTAN PLUS (butylate + antidote) with antidotes
Protocol: as §1, §2, §3
In this example, tests were conducted as in the preceding Examples 18-20, except here the co-herbicidal component was SUTAN® PLUS, a commercial product comprising as the active herbicidal ingredient the compound butylate (Herbicide No. 10) and an antidote […] (Antidote No. 1). Again, the antidotal compounds herein were Nos. 1, 2, 7, 13 and 15. Procedure II was used.

[5] = test system: corn; assay: Example 23, Procedure II: Antidote Nos. 15 and 17-21 against Herbicide No. 1, 13 days after application; settings: Zea mays, 312 h, no antidote, 13 days after application; for inhibition at 140 g/ha: Herb. No. 1 0.14 Kg/Ha; for inhibition at 280 g/ha: Herb. No. 1 0.28 Kg/Ha; for inhibition at 560 g/ha: Herb. No. 1 0.56 Kg/Ha; for inhibition at 1120 g/ha: Herb. No. 1 1.12 Kg/Ha
Protocol: as §1, §2, §3
(§6) In other greenhouse tests, using Procedure II described above, the safening efficacy of Antidote Nos. 15 and 17-21 was evaluated against Herbicide No. 1 in corn in the presence of Giant foxtail (Setaria fabergi) and Velvetleaf (Abutilon theophrasti) as representative annual monocotyledonous and dicotyledonous weeds, respectively.
(§7) Test results are shown in Tables 23A and 23B wherein the indicated plant inhibition represents the average of duplicate replications, with observations being made thirteen (13) days after application of the chemicals. Giant foxtail and Velvetleaf are represented by the symbols "GFT" and "VL", respectively. The data in Table 23A show the test results using the antidotes at 2.24 kg/ha, whereas in Table 23B, the antidotal rate was reduced to 0.56 kg/ha.

[6] = test system: Giant foxtail (Setaria fabergi); assay: as above; settings: Setaria, 312 h
Protocol: as §1, §2, §3, §6, §7

[7] = test system: velvetleaf (Abutilon theophrasti); assay: as above; settings: Abutilon theophrasti, 312 h
Protocol: as §1, §2, §3, §6, §7

[8] = Herbicide No.1 0.56 kg/ha + ERADICANE EXTRA 8.96 kg/ha, antidote 2.24 kg/ha
[9] = Herbicide No.1 0.56 kg/ha + ERADICANE EXTRA 8.96 kg/ha, antidote 8.96 kg/ha
[10] = Herbicide No.1 1.12 kg/ha + ERADICANE EXTRA 8.96 kg/ha, antidote 2.24 kg/ha
[11] = Herbicide No.1 1.12 kg/ha + ERADICANE EXTRA 8.96 kg/ha, antidote 8.96 kg/ha
[12] = Herbicide No.1 0.14 + No.9 2.24 kg/ha + antidote 2.24 kg/ha
[13] = Herbicide No.1 0.14 + No.9 2.24 kg/ha + antidote 8.96 kg/ha
[14] = Herbicide No.1 0.56 + No.9 2.24 kg/ha + antidote 2.24 kg/ha
[15] = Herbicide No.1 0.56 + No.9 2.24 kg/ha + antidote 8.96 kg/ha
[16] = Herbicide No.1 0.56 kg/ha + SUTAN + 8.96 kg/ha, antidote 2.24 kg/ha
[17] = Herbicide No.1 0.56 kg/ha + SUTAN + 8.96 kg/ha, antidote 8.96 kg/ha
[18] = Herbicide No.1 1.12 kg/ha + SUTAN + 8.96 kg/ha, antidote 2.24 kg/ha
[19] = Herbicide No.1 1.12 kg/ha + SUTAN + 8.96 kg/ha, antidote 8.96 kg/ha
[20] = read-out: % Inhibition Corn, Table 23A
[21] = read-out: % Inhibition Corn, Table 23B
[22] = Herbicide No.1 0.14 + No.9 2.24 kg/ha, no antidote
[23] = Herbicide No.1 0.14 kg/ha alone
[24] = Herbicide No.1 0.56 + No.9 (butachlor) 2.24 kg/ha, no antidote
[25] = Herbicide No.1 0.56 kg/ha alone
[26] = Herbicide No.1 1.12 kg/ha alone

`C=CCN(CC=C)C(=O)C(Cl)Cl` [compound 1] was tested, and the “% Injury Corn” value [1, 8] was 35%, the “% Injury Corn” value [1, 9] was 15% and the “% Injury Corn” value [1, 10] was 35%. For the same molecule, the “% Injury Corn” value [1, 11] was 25%, the “% Injury VL” value [2, 12] was 70% and the “% Injury VL” value [2, 13] was 70%. For the same molecule, the “% Injury VL” value [2, 14] was 85%, the “% Injury VL” value [2, 15] was 80% and the “% Injury BYG” value [3, 12] was 99%. The “% Injury BYG” value [3, 13] was 99%, the “% Injury BYG” value [3, 14] was 98% and the “% Injury BYG” value [3, 15] was 99%. The “% Injury Corn” value [4, 16] was 15%, the “% Injury Corn” value [4, 17] was 15% and the “% Injury Corn” value [4, 18] was 30%. The “% Injury Corn” value [4, 19] was 20%.

For `CC1(C(Cl)Cl)OCCO1` [compound 13], the “% Injury Corn” value [1, 8] was 25%, the “% Injury Corn” value [1, 9] was 15% and the “% Injury Corn” value [1, 10] was 20%. The “% Injury Corn” value [1, 11] was 15%, the “% Injury VL” value [2, 12] was 75% and the “% Injury VL” value [2, 13] was 80%. For the same molecule, the “% Injury VL” value [2, 14] was 85%, the “% Injury VL” value [2, 15] was 85% and the “% Injury BYG” value [3, 12] was 99%. For the same molecule, the “% Injury BYG” value [3, 13] was 99%, the “% Injury BYG” value [3, 14] was 99% and the “% Injury BYG” value [3, 15] was 100%. The “% Injury Corn” value [4, 16] was 0%, the “% Injury Corn” value [4, 17] was 10% and the “% Injury Corn” value [4, 18] was 5%. For the same molecule, the “% Injury Corn” value [4, 19] was 10%.

In the case of `COC(=O)c1c(Cl)nn(C)c1S(=O)(=O)NC(=O)Nc1nc(OC)cc(OC)n1` [Herbicide No. 1], the inhibition at 140 g/ha [5, 20] is reported as 15%, the inhibition at 280 g/ha [5, 20] is reported as 25% and the inhibition at 560 g/ha [5, 20] is reported as 50%. It also gave an inhibition at 1120 g/ha [5, 20] of 65%, an inhibition at 140 g/ha [5, 21] of 10% and an inhibition at 280 g/ha [5, 21] of 25%. For the same molecule, the inhibition at 560 g/ha [5, 21] was 40%, the inhibition at 1120 g/ha [5, 21] was 60% and the inhibition at 140 g/ha ([6]; read-out: % Inhibition GFT, Table 23A, Herb. No. 1 0.14 Kg/Ha, no antidote) was 25%. The inhibition at 280 g/ha ([6]; read-out: % Inhibition GFT, Table 23A, Herb. No. 1 0.28 Kg/Ha, no antidote) was 35%, the inhibition at 560 g/ha ([6]; read-out: % Inhibition GFT, Table 23A, Herb. No. 1 0.56 Kg/Ha, no antidote) was 60% and the inhibition at 1120 g/ha ([6]; read-out: % Inhibition GFT, Table 23A, Herb. No. 1 1.12 Kg/Ha, no antidote) was 80%. The inhibition at 140 g/ha ([6]; read-out: % Inhibition GFT, Table 23B, Herb. No. 1 0.14 Kg/Ha, no antidote) was 30%, the inhibition at 280 g/ha ([6]; read-out: % Inhibition GFT, Table 23B, Herb. No. 1 0.28 Kg/Ha, no antidote) was 30% and the inhibition at 560 g/ha ([6]; read-out: % Inhibition GFT, Table 23B, Herb. No. 1 0.56 Kg/Ha, no antidote) was 60%. The inhibition at 1120 g/ha ([6]; read-out: % Inhibition GFT, Table 23B, Herb. No. 1 1.12 Kg/Ha, no antidote) was 70%, the inhibition at 140 g/ha ([7]; read-out: % Inhibition VL, Table 23A, Herb. No. 1 0.14 Kg/Ha, no antidote) was 90% and the inhibition at 280 g/ha ([7]; read-out: % Inhibition VL, Table 23A, Herb. No. 1 0.28 Kg/Ha, no antidote) was 90%. It also gave an inhibition at 560 g/ha ([7]; read-out: % Inhibition VL, Table 23A, Herb. No. 1 0.56 Kg/Ha, no antidote) of 95%, an inhibition at 1120 g/ha ([7]; read-out: % Inhibition VL, Table 23A, Herb. No. 1 1.12 Kg/Ha, no antidote) of 95% and an inhibition at 140 g/ha ([7]; read-out: % Inhibition VL, Table 23B, Herb. No. 1 0.14 Kg/Ha, no antidote) of 85%. For the same molecule, the inhibition at 280 g/ha ([7]; read-out: % Inhibition VL, Table 23B, Herb. No. 1 0.28 Kg/Ha, no antidote) was 95%, the inhibition at 560 g/ha ([7]; read-out: % Inhibition VL, Table 23B, Herb. No. 1 0.56 Kg/Ha, no antidote) was 90% and the inhibition at 1120 g/ha ([7]; read-out: % Inhibition VL, Table 23B, Herb. No. 1 1.12 Kg/Ha, no antidote) was 90%. The “% Injury VL” value [2, 22] was 70%, the “% Injury VL” value [2, 23] was 70% and the “% Injury VL” value [2, 24] was 85%. The “% Injury VL” value [2, 25] was 85%, the “% Injury BYG” value [3, 22] was 100% and the “% Injury BYG” value [3, 23] was 55%. The “% Injury BYG” value [3, 24] was 100% and the “% Injury BYG” value [3, 25] was 93%.

`O=C(C(Cl)Cl)N1CCOC12CCCCC2` [compound 7] was tested, and the “% Injury Corn” value [1, 8] was 15%, the “% Injury Corn” value [1, 9] was 20% and the “% Injury Corn” value [1, 10] was 25%. The “% Injury Corn” value [1, 11] was 25%, the “% Injury VL” value [2, 12] was 70% and the “% Injury VL” value [2, 13] was 65%. The “% Injury VL” value [2, 14] was 75%, the “% Injury VL” value [2, 15] was 65% and the “% Injury BYG” value [3, 12] was 97%. The “% Injury BYG” value [3, 13] was 99%, the “% Injury BYG” value [3, 14] was 99% and the “% Injury BYG” value [3, 15] was 99%. For the same molecule, the “% Injury Corn” value [4, 16] was 5%, the “% Injury Corn” value [4, 17] was 20% and the “% Injury Corn” value [4, 18] was 15%. For the same molecule, the “% Injury Corn” value [4, 19] was 15%.

With `COC(=O)c1c(Cl)nn(C)c1S(=O)(=O)NC(=O)Nc1nc(OC)cc(OC)n1` [No.1] the “% Injury Corn” value ([1]; Herbicide No.1 0.56 kg/ha + ERADICANE EXTRA 8.96 kg/ha, no added antidote) was 30%, the “% Injury Corn” value [1, 25] was 20% and the “% Injury Corn” value ([1]; Herbicide No.1 1.12 kg/ha + ERADICANE EXTRA 8.96 kg/ha, no added antidote) was 20%. For the same molecule, the “% Injury Corn” value [1, 26] was 25%, the “% Injury Corn” value ([4]; Herbicide No.1 0.56 kg/ha + SUTAN + 8.96 kg/ha, no added antidote) was 10% and the “% Injury Corn” value [4, 25] was 0%. The “% Injury Corn” value ([4]; Herbicide No.1 1.12 kg/ha + SUTAN + 8.96 kg/ha, no added antidote) was 5% and the “% Injury Corn” value [4, 26] was 30%.

Reference: patent publication EP0603240B1, “SAFENING HERBICIDAL PYRAZOLYLSULFONYLUREAS” (priority 1991, dated 1993)
